Six compounds from patent publication US20240189289A1, “INHIBITORS OF EPHB3 SIGNALING” (The Brigham and Women`s Hospital, Inc., priority 2021, published 2024) can be followed below.

SMILES strings stand for the structures. “Also recorded” adds a separate entry of the source. Like-named read-outs stand apart in the source and are kept apart here.

Experiment [1] concerns N2A neuronal cells. Briefly: Neurotoxicity assay of astrocyte-conditioned medium (LDH release). The class given is cell-based, mouse. The note with it: ACM from astrocytes pre-treated with compound, LDH release after 24 h. The procedure: (§1) Generation of astrocyte-conditioned medium (ACM). […] After 24 h, cells were extensively washed with 1×PBS, and incubated with fresh astrocyte complete medium for 48 h. Supernatants were spun down and kept at −80° C. until tested in migration and neurotoxicity assays.
Neurotoxicity Assay. N2A neuronal cells (#CCL-131, ATCC) were plated and pre-activated with 100 ng/mL mouse IFNγ (#485-MI-100; R&D Systems) for 24 h.
Thereafter, after extensive washing with 1×PBS, medium was replaced with ACM and after 24 h the supernatant was harvested for cytotoxicity evaluation by measuring LDH release with CytoTox 96 nonradioactive cytotoxicity assay kit (#G1780, Promega) following the manufacturer's protocol.
(In general: LDH leaks from cells whose membrane has failed.)

Experiment [2] concerns splenic CD11b+ monocytes. Briefly: Monocyte migration assay with astrocyte-conditioned medium. The conditions noted are these: ACM from astrocytes pre-treated with compound. The format is cell-based, mouse. Here is the method:
as §1
Monocyte Migration Assay. Monocytes were purified from spleens from C57BL/6J mice using CD11b Microbeads (#130-049-601, Miltenyi) following the manufacturer's instructions. 100,000 monocytes were seeded in the upper chamber of a 24-well cell culture transwell, with a 5 μm pore size (#3421, Thermo Fisher Scientific), containing 300 μL of astrocyte-conditioned medium (as detailed earlier) in the bottom chamber. After 3 h incubation at 37° C. in 5% CO2, cells were collected from the lower chamber after shaking and accutase solution incubation (#A6964, Sigma-Aldrich) and quantified by FACS.

The subject of experiment [3] is PI3K/AKT/mTOR signaling in astrocytes. Put plainly: Western blot of PI3K/AKT/mTOR/NF-κB signaling in primary murine astrocytes. The class given is cell-based, mouse. The conditions noted are these: astrocytes activated 30 minutes with TNFα and IL-1β. The procedure:
Mouse primary astrocyte cultures. […] The cell suspension was then cultured at 37° C. in humidified 5% CO2 on poly-L-Lysine (#P4707, Sigma-Aldrich) pre-coated cell culture flasks. Medium was replaced every 3-5 days. The cells reached confluence after 7-10 days. Microglia were separated by shaking the glia culture at 225 rpm at 37° C. for at least 3 h and washing extensively with 1×PBS. Astrocytes were detached by mild trypsinization with Trypsin-EDTA (0.05%) at 37° C. and plated. […] Both cell types were then cultured separately for downstream procedures. […] Finally, microglia and astrocytes of each condition where magnetically separated as before and lysed for downstream gene expression analysis.
SDS-PAGE and Western blot. […] Membranes were blocked in 10% skimmed milk (#M0841, Lab Scientific) in TBS-T (#IBB-180-2L, Boston BioProducts). Primary antibodies were incubated ON at 4° C. and secondary 30 minutes at RT.
HRP-conjugated blots were developed using the KwikQuant imaging system and KwikQuant western blot detection kit (#R1004 Kindle Biosciences).
A general note: In western blotting, separated proteins are transferred to a membrane and probed.

In experiment [4] the target is EphA2 (Homo sapiens, UniProt P29317). Put plainly: Eph receptor kinase activity assay (radiometric), EphA2. The class given is biochemical. The conditions noted are these: for remaining activity at 0.01 µM: 10 nM compound, read-out: EphA2 % act 10 nM; for remaining activity at 0.03 µM: 30 nM compound, read-out: EphA2 % act 30 nM; for remaining activity at 0.1 µM: 100 nM compound, read-out: EphA2 % act 100 nM.
Chain of EphA2 (P29317 24-976): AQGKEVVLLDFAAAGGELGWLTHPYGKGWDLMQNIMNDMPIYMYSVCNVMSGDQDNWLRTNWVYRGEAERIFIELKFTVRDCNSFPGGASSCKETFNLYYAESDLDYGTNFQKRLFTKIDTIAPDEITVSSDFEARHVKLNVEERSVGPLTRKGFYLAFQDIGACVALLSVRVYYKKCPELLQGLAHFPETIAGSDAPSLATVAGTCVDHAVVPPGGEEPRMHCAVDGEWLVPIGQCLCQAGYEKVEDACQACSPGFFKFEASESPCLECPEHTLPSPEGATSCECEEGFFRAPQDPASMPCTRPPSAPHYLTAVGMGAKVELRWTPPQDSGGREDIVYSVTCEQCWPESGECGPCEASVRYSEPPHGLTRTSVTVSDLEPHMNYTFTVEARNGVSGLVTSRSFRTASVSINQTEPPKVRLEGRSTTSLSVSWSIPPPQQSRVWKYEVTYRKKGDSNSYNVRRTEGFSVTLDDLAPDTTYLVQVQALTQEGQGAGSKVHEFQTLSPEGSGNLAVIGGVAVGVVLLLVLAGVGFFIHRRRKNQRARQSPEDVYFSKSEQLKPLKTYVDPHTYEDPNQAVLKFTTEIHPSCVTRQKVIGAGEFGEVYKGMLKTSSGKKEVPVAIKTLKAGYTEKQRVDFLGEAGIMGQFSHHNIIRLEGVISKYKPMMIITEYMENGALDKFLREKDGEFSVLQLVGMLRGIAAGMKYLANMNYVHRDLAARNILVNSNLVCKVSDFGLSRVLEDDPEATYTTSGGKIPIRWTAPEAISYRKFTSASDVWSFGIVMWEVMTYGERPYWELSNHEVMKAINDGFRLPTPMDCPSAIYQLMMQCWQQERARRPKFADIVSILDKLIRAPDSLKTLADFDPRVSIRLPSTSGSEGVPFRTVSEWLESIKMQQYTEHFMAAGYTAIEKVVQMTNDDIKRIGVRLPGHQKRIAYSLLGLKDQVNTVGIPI

The target in experiment [5] is T1, EphB4 (Homo sapiens, UniProt P54760).
T1 sequence (P54760 16-987): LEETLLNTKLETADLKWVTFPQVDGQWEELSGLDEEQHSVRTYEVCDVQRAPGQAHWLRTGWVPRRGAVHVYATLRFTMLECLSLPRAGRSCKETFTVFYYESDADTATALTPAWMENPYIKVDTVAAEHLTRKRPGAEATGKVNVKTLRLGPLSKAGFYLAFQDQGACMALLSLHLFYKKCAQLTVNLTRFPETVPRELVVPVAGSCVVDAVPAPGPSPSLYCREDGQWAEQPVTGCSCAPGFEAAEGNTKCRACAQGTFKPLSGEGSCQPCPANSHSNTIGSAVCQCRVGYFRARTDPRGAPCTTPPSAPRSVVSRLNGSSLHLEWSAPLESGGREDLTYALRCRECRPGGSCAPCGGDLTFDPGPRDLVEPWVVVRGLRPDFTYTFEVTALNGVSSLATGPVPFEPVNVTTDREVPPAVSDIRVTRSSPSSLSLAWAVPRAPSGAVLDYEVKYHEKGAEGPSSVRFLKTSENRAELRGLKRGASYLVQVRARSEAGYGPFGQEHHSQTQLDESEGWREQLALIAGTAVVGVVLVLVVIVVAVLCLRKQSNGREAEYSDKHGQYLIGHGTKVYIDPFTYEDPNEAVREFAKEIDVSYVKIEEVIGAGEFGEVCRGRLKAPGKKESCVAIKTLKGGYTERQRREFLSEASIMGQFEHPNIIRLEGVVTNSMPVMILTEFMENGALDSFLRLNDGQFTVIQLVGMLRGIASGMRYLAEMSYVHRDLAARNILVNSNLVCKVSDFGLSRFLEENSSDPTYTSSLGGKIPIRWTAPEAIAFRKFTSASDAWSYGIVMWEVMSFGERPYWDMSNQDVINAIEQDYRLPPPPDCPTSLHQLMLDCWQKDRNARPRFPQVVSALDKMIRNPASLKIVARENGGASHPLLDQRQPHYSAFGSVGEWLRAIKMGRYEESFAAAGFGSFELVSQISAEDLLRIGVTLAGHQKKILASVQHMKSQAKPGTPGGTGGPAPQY
Briefly: Eph receptor kinase activity assay (radiometric), EphB4. The class given is biochemical. The conditions noted are these: for remaining activity at 0.01 µM: 10 nM compound, read-out: EphB4 % act 10 nM; for remaining activity at 0.03 µM: 30 nM compound, read-out: EphB4 % act 30 nM; for remaining activity at 0.1 µM: 100 nM compound, read-out: EphB4 % act 100 nM.

Experiment [6] concerns the target T2, EphB3 (Homo sapiens, UniProt P54753).
T2 sequence (P54753 34-998): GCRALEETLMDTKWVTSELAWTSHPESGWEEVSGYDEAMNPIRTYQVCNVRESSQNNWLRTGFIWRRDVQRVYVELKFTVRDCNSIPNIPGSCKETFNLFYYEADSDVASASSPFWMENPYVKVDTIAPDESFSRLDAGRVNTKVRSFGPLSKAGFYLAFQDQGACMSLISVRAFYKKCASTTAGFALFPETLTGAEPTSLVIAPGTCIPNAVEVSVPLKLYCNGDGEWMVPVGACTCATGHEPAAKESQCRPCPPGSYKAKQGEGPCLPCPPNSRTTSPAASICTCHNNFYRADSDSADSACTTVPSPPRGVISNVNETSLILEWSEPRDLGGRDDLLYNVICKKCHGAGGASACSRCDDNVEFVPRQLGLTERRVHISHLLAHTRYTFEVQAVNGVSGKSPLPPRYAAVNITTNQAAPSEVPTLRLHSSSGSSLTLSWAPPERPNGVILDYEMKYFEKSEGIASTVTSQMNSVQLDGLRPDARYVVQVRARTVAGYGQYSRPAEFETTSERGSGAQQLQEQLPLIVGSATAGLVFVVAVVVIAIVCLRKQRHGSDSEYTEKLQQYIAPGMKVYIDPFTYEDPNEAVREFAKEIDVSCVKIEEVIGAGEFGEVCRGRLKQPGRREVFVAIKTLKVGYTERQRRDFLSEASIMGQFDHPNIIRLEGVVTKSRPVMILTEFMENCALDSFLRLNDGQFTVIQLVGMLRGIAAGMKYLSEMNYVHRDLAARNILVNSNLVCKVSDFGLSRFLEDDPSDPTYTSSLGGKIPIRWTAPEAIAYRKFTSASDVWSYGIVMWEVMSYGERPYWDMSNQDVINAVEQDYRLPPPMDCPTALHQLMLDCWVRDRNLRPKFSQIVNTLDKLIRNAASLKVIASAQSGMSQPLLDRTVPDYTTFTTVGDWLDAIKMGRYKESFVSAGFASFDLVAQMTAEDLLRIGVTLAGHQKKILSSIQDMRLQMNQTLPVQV
Briefly: EphB3 radiometric kinase activity assay (33P ATP filter binding). The note with it: for remaining activity at 0.01 µM: 10 nM compound, read-out: EphB3 % act 10 nM; for remaining activity at 0.03 µM: 30 nM compound, read-out: EphB3 % act 30 nM; for remaining activity at 0.1 µM: 100 nM compound, read-out: EphB3 % act 100 nM; for IC50: read-out: EphB3 (nM) IC50. The format is biochemical. Here is the method: EphB3 radiometric kinase activity assay. To study the EphB3 kinase activity, a radioactive filter binding assay using 33P ATP was performed as described at the […] International Centre for Kinase profiling. […] The mix was harvested onto P81 filter plates and counts were read on a Topcount NXT.

For experiment [7], the target named is EphA4 (Homo sapiens, UniProt P54764). Briefly: Eph receptor kinase activity assay (radiometric), EphA4. The class given is biochemical. The note with it: for remaining activity at 0.01 µM: 10 nM compound, read-out: EphA4 % act 10 nM; for remaining activity at 0.03 µM: 30 nM compound, read-out: EphA4 % act 30 nM; for remaining activity at 0.1 µM: 100 nM compound, read-out: EphA4 % act 100 nM.
Chain of EphA4 (P54764 20-986): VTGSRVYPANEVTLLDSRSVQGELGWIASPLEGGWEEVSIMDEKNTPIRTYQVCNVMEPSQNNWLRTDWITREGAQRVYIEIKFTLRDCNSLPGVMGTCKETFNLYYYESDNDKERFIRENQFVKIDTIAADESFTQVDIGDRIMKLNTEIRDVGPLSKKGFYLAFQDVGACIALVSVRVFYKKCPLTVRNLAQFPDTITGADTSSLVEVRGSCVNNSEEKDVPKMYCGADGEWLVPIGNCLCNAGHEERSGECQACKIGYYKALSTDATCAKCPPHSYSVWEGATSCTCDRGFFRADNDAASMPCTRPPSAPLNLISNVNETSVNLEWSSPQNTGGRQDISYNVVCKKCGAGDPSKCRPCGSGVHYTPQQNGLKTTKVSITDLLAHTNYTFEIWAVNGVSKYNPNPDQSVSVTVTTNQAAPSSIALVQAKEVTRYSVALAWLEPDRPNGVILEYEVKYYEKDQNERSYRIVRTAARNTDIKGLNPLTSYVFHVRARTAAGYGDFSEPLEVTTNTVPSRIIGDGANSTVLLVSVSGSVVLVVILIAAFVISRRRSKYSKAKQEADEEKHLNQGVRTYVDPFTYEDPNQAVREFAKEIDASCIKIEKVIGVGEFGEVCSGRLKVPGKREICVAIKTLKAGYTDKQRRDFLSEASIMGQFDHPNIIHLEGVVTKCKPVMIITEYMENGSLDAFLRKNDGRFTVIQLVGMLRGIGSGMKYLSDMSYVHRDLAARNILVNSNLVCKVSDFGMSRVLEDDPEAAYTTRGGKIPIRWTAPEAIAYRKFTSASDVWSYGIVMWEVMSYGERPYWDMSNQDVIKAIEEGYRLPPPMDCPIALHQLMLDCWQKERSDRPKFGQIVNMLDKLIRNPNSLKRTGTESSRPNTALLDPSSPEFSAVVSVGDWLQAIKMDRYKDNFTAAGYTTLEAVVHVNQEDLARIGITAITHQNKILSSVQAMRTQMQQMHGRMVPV

A word on the IC50: it is the concentration that gives 50% inhibition.

On to `O=C(CCl)Nc1ccc2c(Nc3cc(O)ccc3Cl)ncnc2c1` [C9], for which, in experiment [1], the ACM neurotoxic activity entry was “decrease in neurotoxicity; also recorded: reduced ACM neurotoxic”. The ACM chemoattractant activity entry in experiment [2] is “reduced ACM neurotoxic and chemoattractant activity”.
For `FC(F)c1nc2ccccc2n1-c1nc(N2CCOCC2)nc(N2CCOCC2)n1` [ZSTK474, reference compound], in experiment [3], the “phosphorylation of AKT” value is reported as “suppressed”.
As for `O=C(Nc1ccccc1Cl)c1cnc2ccc(-c3ccccc3O)cn12` [compound 116, N-(2-chlorophenyl)-6-(2-hydroxyphenyl)imidazo[1,2-a]pyridine-3-carboxamide], the remaining activity at 0.01 µM stood at 76.4% in experiment [4], 96.5% in experiment [5], 112% in experiment [6] and 99.5% in experiment [7]. The remaining activity at 0.03 µM in experiment [4] came out at 84%; in experiment [5] it was 103%; in experiment [6], 65.5%; in experiment [7], 77%. In addition, the remaining activity at 0.1 µM amounted to 61.3% in experiment [4], 103% in experiment [5], 42.9% in experiment [6] and 82.4% in experiment [7]. Further, the IC50 worked out at 345 nM in experiment [4] (Table 2, Example 12); 687 nM in experiment [5] (Table 2, Example 12); 60 nM in experiment [6] (Table 2, Example 12); 248 nM in experiment [7] (Table 2, Example 12).
`COc1cccc(NC(=O)c2cnc3ccc(C4CCNCC4)cn23)c1Cl` [compound 117, N-(2-Chloro-3-methoxyphenyl)-6-(piperidin-4-yl)imidazo[1,2-a]pyridine-3-carboxamide]: the remaining activity at 0.01 µM came to 95.8% in experiment [4], 104% in experiment [5], 110% in experiment [6] and 74.7% in experiment [7]. The remaining activity at 0.03 µM is 83.8% in experiment [4], 95.6% in experiment [5], 110% in experiment [6] and 75.9% in experiment [7]. For the same compound, the remaining activity at 0.1 µM in experiment [4] amounted to 80.8%; in experiment [5] it was 86.7%; in experiment [6], 102%; in experiment [7], 89.8%. The IC50 in experiment [4] (Table 3, Example 13) was below 10 nM; in experiment [5] (Table 3, Example 13) it was below 10 nM; in experiment [6] (Table 3, Example 13), below 10 nM; in experiment [7] (Table 3, Example 13), below 10 nM.
For `COc1ccc(Cl)c(NC(=O)c2cnc3ccc(C4CCNCC4)cn23)c1` [compound 118, N-(2-Chloro-5-methoxyphenyl)-6-(piperidin-4-yl)imidazo[1,2-a]pyridine-3-carboxamide], the remaining activity at 0.01 µM in experiment [4] was found to be 104%; in experiment [5] it was 97.4%; in experiment [6], 116%; in experiment [7] it was 87%. Moreover, the remaining activity at 0.03 µM was found to be 83.5% in experiment [4], 97.5% in experiment [5], 73.9% in experiment [6] and 55.9% in experiment [7]. The remaining activity at 0.1 µM in experiment [4] turned out to be 82.1%; in experiment [5], 66.5%; in experiment [6], 91.4%; in experiment [7], 47.3%. Further, the IC50 worked out at 288 nM in experiment [4] (Table 3, Example 13); 407 nM in experiment [5] (Table 3, Example 13); 630 nM in experiment [6] (Table 3, Example 13); 57 nM in experiment [7] (Table 3, Example 13).
`CN(C)CC(=O)N1CCC(c2ccc3ncc(C(=O)Nc4ccccc4Cl)n3c2)CC1` [compound 119, N-(2-Chlorophenyl)-6-(1-(dimethylglycyl)piperidin-4-yl)imidazo[1,2-a]pyridine-3-carboxamide]: the remaining activity at 0.01 µM in experiment [4] turned out to be 71.3%; in experiment [5], 87.2%; in experiment [6] it was 116%; in experiment [7], 80.3%. In addition, the remaining activity at 0.03 µM turned out to be 61.2% in experiment [4], 75.9% in experiment [5], 90.3% in experiment [6] and 74.2% in experiment [7]. Besides, the remaining activity at 0.1 µM in experiment [4] is 45.1%; in experiment [5] it was 76.3%; in experiment [6], 78.3%; in experiment [7] it was 72.8%.
